Results published in PubChem BioAssay AID2060513 (Molecular Pharmacology Branch, DTP, NCI, 2025).

System: 299254-011-R-J1-PDC complex spheroids viability
Assay: Anticancer human tumor 299254-011-R-J1-PDC patient-derived melanoma cell line growth inhibition [GQUAD]
Conditions: for IC50: curve of first compound; for viability, T/C: stronger effect = lower value
How it was run: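 Viability of tumor cells grown as complex spheroids with endothelial and stromal cells, exposed to drug combinations. Top concentration at or near clinical Cmax (else 10 microM), diluted in half-log increments.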

[1] = second compound 0.0316 µM, first compound 0.0316 µM
[2] = second compound 0.0316 µM, first compound 0.1 µM
[3] = second compound 0.0316 µM, first compound 0.316 µM
[4] = second compound 0.0316 µM, first compound 1 µM
[5] = second compound 0.0316 µM, first compound 3.16 µM
[6] = second compound 0.0316 µM, first compound 10 µM
[7] = second compound 0.1 µM, first compound 0.0316 µM
[8] = second compound 0.1 µM, first compound 0.1 µM
[9] = second compound 0.1 µM, first compound 0.316 µM
[10] = second compound 0.1 µM, first compound 1 µM
[11] = second compound 0.1 µM, first compound 3.16 µM
[12] = second compound 0.1 µM, first compound 10 µM
[13] = second compound 0.316 µM, first compound 0.0316 µM
[14] = second compound 0.316 µM, first compound 0.1 µM
[15] = second compound 0.316 µM, first compound 0.316 µM
[16] = second compound 0.316 µM, first compound 1 µM
[17] = second compound 0.316 µM, first compound 3.16 µM
[18] = second compound 0.316 µM, first compound 10 µM
[19] = second compound 1 µM, first compound 0.0316 µM
[20] = second compound 1 µM, first compound 0.1 µM
[21] = second compound 1 µM, first compound 0.316 µM
[22] = second compound 1 µM, first compound 1 µM
[23] = second compound 1 µM, first compound 3.16 µM
[24] = second compound 1 µM, first compound 10 µM
[25] = second compound 3.16 µM, first compound 0.0316 µM
[26] = second compound 3.16 µM, first compound 0.1 µM
[27] = second compound 3.16 µM, first compound 0.316 µM
[28] = second compound 3.16 µM, first compound 1 µM
[29] = second compound 3.16 µM, first compound 3.16 µM
[30] = second compound 3.16 µM, first compound 10 µM
[31] = second compound 10 µM, first compound 0.0316 µM
[32] = second compound 10 µM, first compound 0.1 µM
[33] = second compound 10 µM, first compound 0.316 µM
[34] = second compound 10 µM, first compound 1 µM
[35] = second compound 10 µM, first compound 3.16 µM
[36] = second compound 10 µM, first compound 10 µM
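Further: spheroids exposed to the agents for seven days before readout.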
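Wherever viability, T/C is given: percent viability relative to DMSO vehicle control wells = 100%.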

## CC1COCCN1c1cc(C2(S(C)(=N)=O)CC2)nc(-c2ccnc3[nH]ccc23)n1 (stereo not drawn) + Cc1cnc(CNC(=O)c2c(=O)c3ccc(N4CCCN(C)CC4)nc3n3c2sc2ccccc23)cn1
Second compound 0.0316 µM
  IC50: 1.65 µM
Second compound 0.1 µM
  IC50: 2.48 µM
Second compound 0.316 µM
  IC50: 1.68 µM
Second compound 1 µM
  IC50: 0.524 µM
Second compound 3.16 µM
  IC50: 0.517 µM
Second compound 10 µM
  IC50: < 0.0316 µM
[1]
  viability, T/C: 93%
[2]
  viability, T/C: 89.9%
[3]
  viability, T/C: 76.7%
[4]
  viability, T/C: 61.8%
[5]
  viability, T/C: 36%
[6]
  viability, T/C: 22%
[7]
  viability, T/C: 80.8%
[8]
  viability, T/C: 95.6%
[9]
  viability, T/C: 78.9%
[10]
  viability, T/C: 79.4%
[11]
  viability, T/C: 42.2%
[12]
  viability, T/C: 18.7%
[13]
  viability, T/C: 80.6%
[14]
  viability, T/C: 97.1%
[15]
  viability, T/C: 96.7%
[16]
  viability, T/C: 69.8%
[17]
  viability, T/C: 25.7%
[18]
  viability, T/C: 15.6%
[19]
  viability, T/C: 71.9%
[20]
  viability, T/C: 83.1%
[21]
  viability, T/C: 48.7%
[22]
  viability, T/C: 44.1%
[23]
  viability, T/C: 24.4%
[24]
  viability, T/C: 17.1%
[25]
  viability, T/C: 76.3%
[26]
  viability, T/C: 72.3%
[27]
  viability, T/C: 63.7%
[28]
  viability, T/C: 31.9%
[29]
  viability, T/C: 22.8%
[30]
  viability, T/C: 19.1%
[31]
  viability, T/C: 0.39%
[32]
  viability, T/C: 19.2%
[33]
  viability, T/C: 44.1%
[34]
  viability, T/C: 26.4%
[35]
  viability, T/C: 0.34%
[36]
  viability, T/C: 0.27%

## C=CC(=O)N1CCN(c2nc(=O)n(-c3c(C)ccnc3C(C)C)c3nc(-c4c(O)cccc4F)c(F)cc23)C(C)C1 (stereo not drawn) + Cc1cnc(CNC(=O)c2c(=O)c3ccc(N4CCCN(C)CC4)nc3n3c2sc2ccccc23)cn1
Second compound 0.0316 µM
  IC50: > 10 µM
Second compound 0.1 µM
  IC50: > 10 µM
Second compound 0.316 µM
  IC50: > 10 µM
Second compound 1 µM
  IC50: > 10 µM
Second compound 3.16 µM
  IC50: > 10 µM
Second compound 10 µM
  IC50: < 0.0316 µM
[1]
  viability, T/C: 73.3%
[2]
  viability, T/C: 71.1%
[3]
  viability, T/C: 69.3%
[4]
  viability, T/C: 58.3%
[5]
  viability, T/C: 59.4%
[6]
  viability, T/C: 76.8%
[7]
  viability, T/C: 67.8%
[8]
  viability, T/C: 74.9%
[9]
  viability, T/C: 64.1%
[10]
  viability, T/C: 57.6%
[11]
  viability, T/C: 60.7%
[12]
  viability, T/C: 78.2%
[13]
  viability, T/C: 93%
[14]
  viability, T/C: 72.9%
[15]
  viability, T/C: 60.8%
[16]
  viability, T/C: 67.4%
[17]
  viability, T/C: 65.1%
[18]
  viability, T/C: 70.3%
[19]
  viability, T/C: 73.8%
[20]
  viability, T/C: 65.3%
[21]
  viability, T/C: 65.2%
[22]
  viability, T/C: 67.3%
[23]
  viability, T/C: 83.7%
[24]
  viability, T/C: 61.2%
[25]
  viability, T/C: 76.3%
[26]
  viability, T/C: 78.9%
[27]
  viability, T/C: 63.5%
[28]
  viability, T/C: 69.8%
[29]
  viability, T/C: 74.6%
[30]
  viability, T/C: 52.9%
[31]
  viability, T/C: 0.4%
[32]
  viability, T/C: 0.46%
[33]
  viability, T/C: 8.66%
[34]
  viability, T/C: 0.41%
[35]
  viability, T/C: 0.41%
[36]
  viability, T/C: 0.36%

## COc1cc(C2c3cc4c(cc3C(OC3OC5COC(C)OC5C(O)C3O)C3COC(=O)C23)OCO4)cc(OC)c1O (stereo not drawn) + CN(C)c1ccc(Nc2c3ccc(NC(=O)CCN4CCCC4)cc3nc3cc(NC(=O)CCN4CCCC4)ccc23)cc1
Second compound 0.0316 µM
  IC50: > 10 µM
Second compound 0.1 µM
  IC50: > 10 µM
Second compound 0.316 µM
  IC50: > 10 µM
Second compound 1 µM
  IC50: > 10 µM
Second compound 3.16 µM
  IC50: > 10 µM
Second compound 10 µM
  IC50: > 10 µM
[1]
  viability, T/C: 117%
[2]
  viability, T/C: 102%
[3]
  viability, T/C: 115%
[4]
  viability, T/C: 88.3%
[5]
  viability, T/C: 79.4%
[6]
  viability, T/C: 88.7%
[7]
  viability, T/C: 116%
[8]
  viability, T/C: 105%
[9]
  viability, T/C: 92.1%
[10]
  viability, T/C: 92.6%
[11]
  viability, T/C: 101%
[12]
  viability, T/C: 87.1%
[13]
  viability, T/C: 104%
[14]
  viability, T/C: 107%
[15]
  viability, T/C: 93.6%
[16]
  viability, T/C: 88.2%
[17]
  viability, T/C: 87.2%
[18]
  viability, T/C: 76.8%
[19]
  viability, T/C: 105%
[20]
  viability, T/C: 107%
[21]
  viability, T/C: 123%
[22]
  viability, T/C: 93.5%
[23]
  viability, T/C: 87.2%
[24]
  viability, T/C: 95.2%
[25]
  viability, T/C: 102%
[26]
  viability, T/C: 108%
[27]
  viability, T/C: 118%
[28]
  viability, T/C: 81.2%
[29]
  viability, T/C: 81.3%
[30]
  viability, T/C: 81.3%
[31]
  viability, T/C: 89.2%
[32]
  viability, T/C: 105%
[33]
  viability, T/C: 101%
[34]
  viability, T/C: 107%
[35]
  viability, T/C: 98%
[36]
  viability, T/C: 81.8%

## Cn1ncnc1[C@H]1c2n[nH]c(=O)c3cc(F)cc(c23)N[C@@H]1c1ccc(F)cc1 + CN(C)c1ccc(Nc2c3ccc(NC(=O)CCN4CCCC4)cc3nc3cc(NC(=O)CCN4CCCC4)ccc23)cc1
Second compound 0.0316 µM
  IC50: > 0.316 µM
Second compound 0.1 µM
  IC50: > 0.316 µM
Second compound 0.316 µM
  IC50: > 0.316 µM
Second compound 1 µM
  IC50: > 0.316 µM
Second compound 3.16 µM
  IC50: > 0.316 µM
Second compound 10 µM
  IC50: > 0.316 µM
Second compound 0.0316 µM, first compound 0.000999 µM
  viability, T/C: 108%
Second compound 0.0316 µM, first compound 0.00316 µM
  viability, T/C: 101%
Second compound 0.0316 µM, first compound 0.00999 µM
  viability, T/C: 100%
[1]
  viability, T/C: 101%
Second compound 0.0316 µM, first compound 0.0999 µM
  viability, T/C: 105%
[3]
  viability, T/C: 83.8%
Second compound 0.1 µM, first compound 0.000999 µM
  viability, T/C: 90.5%
Second compound 0.1 µM, first compound 0.00316 µM
  viability, T/C: 109%
Second compound 0.1 µM, first compound 0.00999 µM
  viability, T/C: 107%
[7]
  viability, T/C: 102%
Second compound 0.1 µM, first compound 0.0999 µM
  viability, T/C: 86.9%
[9]
  viability, T/C: 87.5%
Second compound 0.316 µM, first compound 0.000999 µM
  viability, T/C: 110%
Second compound 0.316 µM, first compound 0.00316 µM
  viability, T/C: 90.3%
Second compound 0.316 µM, first compound 0.00999 µM
  viability, T/C: 100%
[13]
  viability, T/C: 106%
Second compound 0.316 µM, first compound 0.0999 µM
  viability, T/C: 93.1%
[15]
  viability, T/C: 97.8%
Second compound 1 µM, first compound 0.000999 µM
  viability, T/C: 121%
Second compound 1 µM, first compound 0.00316 µM
  viability, T/C: 84.5%
Second compound 1 µM, first compound 0.00999 µM
  viability, T/C: 98.4%
[19]
  viability, T/C: 92.8%
Second compound 1 µM, first compound 0.0999 µM
  viability, T/C: 98.6%
[21]
  viability, T/C: 92.6%
Second compound 3.16 µM, first compound 0.000999 µM
  viability, T/C: 110%
Second compound 3.16 µM, first compound 0.00316 µM
  viability, T/C: 98.2%
Second compound 3.16 µM, first compound 0.00999 µM
  viability, T/C: 101%
[25]
  viability, T/C: 105%
Second compound 3.16 µM, first compound 0.0999 µM
  viability, T/C: 112%
[27]
  viability, T/C: 100%
Second compound 10 µM, first compound 0.000999 µM
  viability, T/C: 87%
Second compound 10 µM, first compound 0.00316 µM
  viability, T/C: 85.2%
Second compound 10 µM, first compound 0.00999 µM
  viability, T/C: 89.8%
[31]
  viability, T/C: 101%
Second compound 10 µM, first compound 0.0999 µM
  viability, T/C: 93.9%
[33]
  viability, T/C: 109%
